{
  "source": "patent US10385012B2",
  "about": "“Thioamides and amides for controlling animal pests” (BASF SE, priority 2013, dated 2019)",
  "format_in_all_cases": "in vivo",
  "key": {"[1]": {"test_system": "boll weevil (Anthonomus grandis)", "experiment": "Boll weevil control, 24-well microtiter plates with insect diet and eggs", "settings": "120 h, egg and larval mortality after 5 days, in comparison with untreated controls", "experimental": "(§1) For evaluating control of boll weevil (Anthonomus grandis) the test unit consisted of 24-well-microtiter plates containing an insect diet and 20-30 A. grandis eggs. The compounds were formulated using a solution containing 75% v/v water and 25% v/v DMSO. Different concentrations of formulated compounds were sprayed onto the insect diet at 20 μl, using a custom built micro atomizer, at two replications. After application, microtiter plates were incubated at about 23±1° C. and about 50±5% relative humidity for 5 days. Egg and larval mortality was then visually assessed."}, "[2]": {"test_system": "Silverleaf whitefly (Bemisia argentifolii)", "experiment": "Silverleaf whitefly test on sprayed cotton plants", "settings": "72 h, whitefly adults on cotton, 3 days after treatment, in comparison with untreated controls", "experimental": "The active compounds were formulated in cyclohexanone as a 10,000 ppm solution supplied in 1.3 ml ABgene® tubes. These tubes were inserted into an automated electrostatic sprayer equipped with an atomizing nozzle and they served as stock solutions for which lower dilutions were made in 50% acetone:50% water (v/v). A nonionic surfactant (Kinetic®) was included in the solution at a volume of 0.01% (v/v). Cotton plants at the cotyledon stage (one plant per pot) were sprayed by an automated electrostatic plant sprayer equipped with an atomizing spray nozzle. The plants were dried in the sprayer fume hood and then removed from the sprayer. Each pot was placed into a plastic cup and 10 to 12 whitefly adults (approximately 3-5 days old) were introduced. The insects were collected using an aspirator and 0.6 cm, nontoxic Tygon® tubing (R-3603) connected to a barrier pipette tip. The tip, containing the collected insects, was then gently inserted into the soil containing the treated plant, allowing insects to crawl out of the tip to reach the foliage for feeding. Cups were covered with a reusable screened lid (150-micron mesh polyester screen PeCap from Tetko, Inc.). […] Mortality was assessed 3 days after treatment, compared to untreated control plants."}, "[3]": {"test_system": "Green soldier stink bug (Nezara viridula)", "experiment": "Green soldier stink bug test on sprayed soybean pods", "settings": "120 h, 3rd instar N. viridula on soybean pods, after 5 days, in comparison with untreated controls", "experimental": "The active compound is dissolved at the desired concentration in a mixture of 1:1 (vol:vol) distilled water:aceteone. Surfactant (Kinetic HV) is added at a rate of 0.01% (vol/vol). The test solution is prepared at the day of use. Soybean pods were placed in microwavable plastic cups lined with moist filter paper and inoculated with ten 3rd instar N. viridula. Using a hand atomizer, an approximately 2 ml solution is sprayed into each cup. Treated cups were kept at about 28-29° C. and relative humidity of about 50-60%. Percent mortality was recorded after 5 days."}, "[4]": {"test_system": "Southern armyworm (Spodoptera eridania)", "experiment": "Southern armyworm test on sprayed lima bean plants", "settings": "500 ppm; armyworm larvae on lima bean, 4 days after treatment; in comparison with untreated controls", "experimental": "The active compounds were formulated in cyclohexanone as a 10,000 ppm solution supplied in 1.3 ml ABgene® tubes. These tubes were inserted into an automated electrostatic sprayer equipped with an atomizing nozzle and they served as stock solutions for which lower dilutions were made in 50% acetone:50% water (v/v). A nonionic surfactant (Kinetic®) was included in the solution at a volume of 0.01% (v/v). Lima bean plants (variety Sieva) were grown 2 plants to a pot and selected for treatment at the 1st true leaf stage. Test solutions were sprayed onto the foliage by an automated electro-static plant sprayer equipped with an atomizing spray nozzle. The plants were dried in the sprayer fume hood and then removed from the sprayer. Each pot was placed into perforated plastic bags with a zip closure. Ten to 11 armyworm larvae were placed into the bag and the bags zipped closed. Test plants were maintained in a growth room at 25° C. and 20-40% relative humidity for 4 days, avoiding direct exposure to fluorescent light (24 hour photoperiod) to prevent trapping of heat inside the bags. Mortality and reduced feeding were assessed 4 days after treatment, compared to untreated control plants."}, "[5]": {"test_system": "Mediterranean fruitfly (Ceratitis capitata)", "experiment": "Mediterranean fruitfly control, microtiter plates with insect diet and eggs", "settings": "120 h, egg and larval mortality after 5 days, in comparison with untreated controls", "experimental": "as §1, with “Mediterranean fruitfly (Ceratitis capitata)” for “boll weevil (Anthonomus grandis)”, “microtiter” for “24-well-microtiter”, “50-80 C. capitata” for “20-30 A. grandis”, “5” for “20”, “28±1°” for “23±1°”, “80±5%” for “50±5%”"}, "[6]": {"test_system": "yellow fever mosquito (Aedes aegypti)", "experiment": "whole plant or invertebrate", "settings": "48 h, larval mortality after 2 days, in comparison with untreated controls", "experimental": "For evaluating control of yellow fever mosquito (Aedes aegypti) the test unit consisted of 96-well-microtiter plates containing 200 μl of tap water per well and 5-15 freshly hatched A. aegypti larvae. The compounds or mixtures were formulated using a solution containing 75% water and 25% DMSO. Different concentrations of formulated compounds or mixtures were sprayed onto the insect diet at 2.5 μl, using a custom built micro atomizer, at two replications. After application, microtiter plates were incubated at 28±1° C., 80±5% RH for 2 days. Larval mortality was then visually assessed."}},
  "data": [
    {"compound": "C#Cc1ccc(CC(C#N)(C(N)=S)c2ccccc2)cc1", "note": "(centres unmarked) [II-1, 2-cyano-3-(4-ethynylphenyl)-2-phenylpropanethioamide]", "values": [
      {"measurement": "mortality at 2500 ppm", "setting": "[1]", "result": "≥ 75", "unit": "%"},
      {"measurement": "mortality at 500 ppm", "setting": "[2]", "result": "≥ 75", "unit": "%"},
      {"measurement": "mortality at 500 ppm", "setting": "[3]", "result": "≥ 75", "unit": "%"}
    ]},
    {"compound": "N#CC(Cc1ccc(C(F)(F)F)cc1)(C(N)=O)c1ccc(F)cc1", "note": "(centres unmarked) [II-2]", "values": [
      {"measurement": "mortality", "setting": "[4]", "result": "at least 75%"}
    ]},
    {"compound": "C#Cc1ccc(CC(C#N)(C(=O)NC)c2ccc(F)cc2)cc1", "note": "(centres unmarked) [III-4, 2-cyano-3-(4-ethynylphenyl)-2-(4-fluorophenyl)-N-methyl-propanamide]", "values": [
      {"measurement": "mortality at 2500 ppm", "setting": "[1]", "result": "≥ 75", "unit": "%"},
      {"measurement": "mortality at 2500 ppm", "setting": "[5]", "result": "≥ 75", "unit": "%"}
    ]},
    {"compound": "C#Cc1ccc(CC(C#N)(C(=S)NC)c2ccc(F)cc2)cc1", "note": "(centres unmarked) [III-1, 2-cyano-3-(4-ethynylphenyl)-2-(4-fluorophenyl)-N-methyl-propanethioamide]", "values": [
      {"measurement": "mortality at 2500 ppm", "setting": "[1]", "result": "≥ 75", "unit": "%"},
      {"measurement": "mortality at 2500 ppm", "setting": "[6]", "result": "≥ 75", "unit": "%"}
    ]}
  ]
}
